Reference: ChEMBL document CHEMBL1201862, “PubChem BioAssay data set” (2004)
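48-hour exposure; five concentrations; linearly interpolated endpoints. GI50: concentration for 50% inhibition of growth.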 Active and inactive are the calls of the source. Cut-off read from the data, not from the text of the source: active = GI50 up to about 1.1 µM and inactive = higher.

Tests used:
Test in all cases: growth of human tumour cells (NCI), 48 h
Malme-3M = test system: Malme-3M
RXF 393 = test system: RXF 393
COLO 205 = test system: COLO 205
786-0 = test system: 786-0
OVCAR-4 = test system: OVCAR-4
HCT-15 = test system: HCT-15
MOLT-4 = test system: MOLT-4
RPMI-8226 = test system: RPMI-8226
SW-620 = test system: SW-620
SF-295 = test system: SF-295
UACC-257 = test system: UACC-257
SF-268 = test system: SF-268
SNB-78 = test system: SNB-78
A549 = test system: A549
LOX IMVI = test system: LOX IMVI
HL-60 = test system: HL-60
NCI-H226 = test system: NCI-H226
CAKI-1 = test system: CAKI-1
PC-3 = test system: PC-3
Hs-578T = test system: Hs-578T

| SMILES | GI50 (Malme-3M) | GI50 (RXF 393) | GI50 (COLO 205) | GI50 (786-0) | GI50 (OVCAR-4) | GI50 (HCT-15) [µM] | GI50 (MOLT-4) | GI50 (RPMI-8226) | GI50 (SW-620) | GI50 (SF-295) | GI50 (UACC-257) | GI50 (SF-268) | GI50 (SNB-78) | GI50 (A549) | GI50 (LOX IMVI) | GI50 (HL-60) | GI50 (NCI-H226) | GI50 (CAKI-1) | GI50 (PC-3) | GI50 (Hs-578T) |
| --- | --- | --- | --- | --- | --- | --- | --- | --- | --- | --- | --- | --- | --- | --- | --- | --- | --- | --- | --- | --- |
| N#CC1(Cc2ccccc2)CCCCN1C(=O)c1ccccc1 (centres undefined) | > 100 µM (inactive) | > 100 µM (inactive) | > 100 µM (inactive) | > 100 µM (inactive) | > 100 µM (inactive) | > 100 | 74.6 µM (inactive) | > 100 µM (inactive) | > 100 µM (inactive) | > 100 µM (inactive) | > 100 µM (inactive) | > 100 µM (inactive) | > 100 µM (inactive) | > 100 µM (inactive) | 84.7 µM (inactive) | 45.2 µM (inactive) |  |  |  |  |
| CO/N=C/c1cc(OC)c(OC)c(OC)c1 | > 100 µM (inactive) |  | > 100 µM (inactive) | > 100 µM (inactive) | > 100 µM (inactive) | > 100 | > 100 µM (inactive) | > 100 µM (inactive) | > 100 µM (inactive) | > 100 µM (inactive) | > 100 µM (inactive) | > 100 µM (inactive) | > 100 µM (inactive) | > 100 µM (inactive) | > 100 µM (inactive) | > 100 µM (inactive) | > 100 µM (inactive) | > 100 µM (inactive) |  |  |
| COc1cc(OC)cc(N2CCC(c3c(N)nc(N)nc3Cl)CC2)c1 | 31 µM (inactive) | > 100 µM (inactive) | 58.1 µM (inactive) | > 100 µM (inactive) | 91.8 µM (inactive) | 99.5 | 31.5 µM (inactive) | 16.9 µM (inactive) | 65 µM (inactive) | 83 µM (inactive) | 43.7 µM (inactive) | 98.2 µM (inactive) | > 100 µM (inactive) | 65 µM (inactive) | > 100 µM (inactive) | 18 µM (inactive) |  | > 100 µM (inactive) |  |  |
| C=CC1[C@H]2COC(C)(C)O[C@@H]2CC(=O)C1(C)C (some centres undefined) | > 100 µM (inactive) | 94.8 µM (inactive) | > 100 µM (inactive) | 72.9 µM (inactive) | > 100 µM (inactive) |  |  |  | > 100 µM (inactive) | > 100 µM (inactive) | > 100 µM (inactive) | > 100 µM (inactive) | > 100 µM (inactive) | > 100 µM (inactive) | > 100 µM (inactive) | > 100 µM (inactive) | > 100 µM (inactive) | > 100 µM (inactive) |  |  |
| Cc1cc2c(=O)c3ccccc3[nH]c2c(C(N)=O)c1C | > 100 µM (inactive) | > 100 µM (inactive) | > 100 µM (inactive) | > 100 µM (inactive) | > 100 µM (inactive) | > 100 | > 100 µM (inactive) | > 100 µM (inactive) | > 100 µM (inactive) | > 100 µM (inactive) | > 100 µM (inactive) | > 100 µM (inactive) | > 100 µM (inactive) | > 100 µM (inactive) | > 100 µM (inactive) |  | > 100 µM (inactive) | > 100 µM (inactive) |  |  |
| Cc1ccc(C2=Nc3ccccc3NC(=O)C2)cc1 | > 100 µM (inactive) | > 100 µM (inactive) | > 100 µM (inactive) | 77.8 µM (inactive) | > 100 µM (inactive) | > 100 | > 100 µM (inactive) |  | 27.7 µM (inactive) | > 100 µM (inactive) | > 100 µM (inactive) | > 100 µM (inactive) | 72.6 µM (inactive) | > 100 µM (inactive) | 95.1 µM (inactive) | 51.2 µM (inactive) | 12.7 µM (inactive) | > 100 µM (inactive) |  |  |
| COC(=O)C(Cc1nc2ccccc2nc1O)/C(=N\NC(C)(C)C)C(=O)Nc1c(C)cc(Br)cc1C (centres undefined) | 27.6 µM (inactive) |  | 17.4 µM (inactive) | 17.5 µM (inactive) | 34.8 µM (inactive) | 23.4 | 1.5 µM (inactive) | 35.2 µM (inactive) | 35.2 µM (inactive) | 35.3 µM (inactive) | 33.9 µM (inactive) | 22.3 µM (inactive) | 22.6 µM (inactive) | 50.9 µM (inactive) | 19.3 µM (inactive) |  | 17.6 µM (inactive) | 24.5 µM (inactive) |  |  |
| S=c1c2cc(I)ccc2nc(S)n1Cc1ccccc1 | 4.01 µM (inactive) | 2.17 µM (inactive) | 10.7 µM (inactive) | 5.96 µM (inactive) | 3.62 µM (inactive) | 3.78 | 3.18 µM (inactive) | 2.95 µM (inactive) | 3.72 µM (inactive) | 2.99 µM (inactive) | 2.44 µM (inactive) | 6.43 µM (inactive) |  | 3.68 µM (inactive) | 3.4 µM (inactive) | 2.33 µM (inactive) | 5.46 µM (inactive) | 3.78 µM (inactive) | 3.32 µM (inactive) | 7.16 µM (inactive) |
| CCOC(=O)CP(=S)(S)c1ccccc1 (centres undefined) | > 100 µM (inactive) | > 100 µM (inactive) | > 100 µM (inactive) | > 100 µM (inactive) | > 100 µM (inactive) |  | > 100 µM (inactive) |  | > 100 µM (inactive) | > 10 µM (inactive) | > 100 µM (inactive) | > 100 µM (inactive) | > 100 µM (inactive) | > 100 µM (inactive) | > 100 µM (inactive) | > 100 µM (inactive) | > 100 µM (inactive) | > 100 µM (inactive) |  |  |
| COC(=O)C1=C(O)C(C(=O)OC)[C@]2(O)[C@H](C(=O)OC)[C@H]1C[C@@H](c1ccc(C(F)(F)F)cc1)[C@H]2C(=O)OC (some centres undefined) | 3.78 µM (inactive) | 2.17 µM (inactive) | 3.18 µM (inactive) | 3.44 µM (inactive) | 5.55 µM (inactive) | 2.82 | 2.07 µM (inactive) | 2.51 µM (inactive) | 2.76 µM (inactive) | 4 µM (inactive) | 4.6 µM (inactive) | 4.47 µM (inactive) |  | 3.74 µM (inactive) | 2.45 µM (inactive) | 5.48 µM (inactive) | 1.33 µM (inactive) | 3.34 µM (inactive) | 3.48 µM (inactive) | 4.43 µM (inactive) |
| O=C(NNC(=S)NC1CCCCC1)C12CC3CC(CC(C3)C1)C2 | > 100 µM (inactive) | > 100 µM (inactive) | > 100 µM (inactive) | 61.8 µM (inactive) | > 100 µM (inactive) | > 100 | > 100 µM (inactive) | > 100 µM (inactive) | > 100 µM (inactive) | > 100 µM (inactive) | > 100 µM (inactive) | > 100 µM (inactive) |  | > 100 µM (inactive) | > 100 µM (inactive) | > 100 µM (inactive) | > 100 µM (inactive) | > 100 µM (inactive) | > 100 µM (inactive) | > 100 µM (inactive) |
| COc1ccc(/C=C2\Cc3ccccc3C2=O)cc1OC | > 100 µM (inactive) |  | > 100 µM (inactive) | > 100 µM (inactive) | > 100 µM (inactive) | > 100 | > 100 µM (inactive) | > 100 µM (inactive) | > 100 µM (inactive) | 60.8 µM (inactive) | > 100 µM (inactive) | 45.3 µM (inactive) | > 100 µM (inactive) | > 100 µM (inactive) |  |  |  | > 100 µM (inactive) |  |  |
| CCOC(=O)c1c(C)c(C)n2c1NC(=O)C2 | > 50.7 µM (inactive) | > 40.4 µM (inactive) | > 73.6 µM (inactive) | > 49.7 µM (inactive) | > 100 µM (inactive) | > 61.1 | > 100 µM (inactive) | > 48 µM (inactive) | > 54 µM (inactive) | > 80 µM (inactive) | > 60 µM (inactive) | > 42.8 µM (inactive) |  | > 82.6 µM (inactive) | > 68.7 µM (inactive) | > 100 µM (inactive) | > 100 µM (inactive) | > 59.4 µM (inactive) | 36.8 µM (inactive) | 20.3 µM (inactive) |
| CC(C)=CCC/C(C)=C/CC/C(C)=C/CCC1(C)CCC([C@H](C)C(=O)O)OO1.CC1=C(CC/C(C)=C/CCC2(C)CCC([C@H](C)C(=O)O)OO2)C(C)(C)CCC1 (some centres undefined) | > 100 µM (inactive) | > 100 µM (inactive) | > 100 µM (inactive) | > 100 µM (inactive) | > 100 µM (inactive) |  |  |  | > 100 µM (inactive) | > 100 µM (inactive) | > 100 µM (inactive) | > 100 µM (inactive) | > 100 µM (inactive) | > 100 µM (inactive) | > 100 µM (inactive) | > 100 µM (inactive) | > 100 µM (inactive) | > 100 µM (inactive) |  |  |
| CCOC(=O)c1sc2nc(SC)nc3c2c1NCN3c1ccc2c(c1)OCO2 | 17.9 µM (inactive) | 3.14 µM (inactive) | 35.2 µM (inactive) | 4.34 µM (inactive) | 5.2 µM (inactive) | 52.5 | 26.1 µM (inactive) | 24.2 µM (inactive) | 17.2 µM (inactive) | 10.9 µM (inactive) | > 100 µM (inactive) | 3.42 µM (inactive) |  | 7.83 µM (inactive) | 23.8 µM (inactive) | 52 µM (inactive) | 25.8 µM (inactive) | 58.1 µM (inactive) | 14.3 µM (inactive) | 3.58 µM (inactive) |
| Cc1ccccc1OC(C)C(=O)NN1C(=O)CC(=O)N(c2ccc(Cl)cc2)C1=S (centres undefined) | 48.2 µM (inactive) | 25 µM (inactive) | 23.3 µM (inactive) | 34 µM (inactive) | 38.5 µM (inactive) | 30.1 | 30.5 µM (inactive) | 34.4 µM (inactive) | 36.2 µM (inactive) | 36.8 µM (inactive) | 30 µM (inactive) | 50.9 µM (inactive) |  | 43.9 µM (inactive) | 29 µM (inactive) | 13.4 µM (inactive) | 31.5 µM (inactive) | 37.8 µM (inactive) | 31.9 µM (inactive) | 63.2 µM (inactive) |
